From PubChem BioAssay AID2060610 (Molecular Pharmacology Branch, DTP, NCI, 2025)

System: 616215-338-R-J1-PDC complex spheroids, viability % test/control
Test: Anticancer human tumor 616215-338-R-J1-PDC patient-derived colon adenocarcinoma cell line growth inhibition [CLK]
Conditions: for IC50: curve of first compound; for viability, T/C: stronger effect = lower value
Summary of the method: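 Multi-cell-type spheroids combined patient-derived tumor cells with HUVEC endothelial cells and human mesenchymal stem cells. Paired agents were dosed in half-log steps down from about clinical Cmax, or from 10 microM where Cmax was unknown.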

[1] = second compound 0.0316 µM, first compound 0.0316 µM
[2] = second compound 0.0316 µM, first compound 0.1 µM
[3] = second compound 0.0316 µM, first compound 0.316 µM
[4] = second compound 0.0316 µM, first compound 1 µM
[5] = second compound 0.0316 µM, first compound 3.16 µM
[6] = second compound 0.0316 µM, first compound 10 µM
[7] = second compound 0.1 µM, first compound 0.0316 µM
[8] = second compound 0.1 µM, first compound 0.1 µM
[9] = second compound 0.1 µM, first compound 0.316 µM
[10] = second compound 0.1 µM, first compound 1 µM
[11] = second compound 0.1 µM, first compound 3.16 µM
[12] = second compound 0.1 µM, first compound 10 µM
[13] = second compound 0.316 µM, first compound 0.0316 µM
[14] = second compound 0.316 µM, first compound 0.1 µM
[15] = second compound 0.316 µM, first compound 0.316 µM
[16] = second compound 0.316 µM, first compound 1 µM
[17] = second compound 0.316 µM, first compound 3.16 µM
[18] = second compound 0.316 µM, first compound 10 µM
[19] = second compound 1 µM, first compound 0.0316 µM
[20] = second compound 1 µM, first compound 0.1 µM
[21] = second compound 1 µM, first compound 0.316 µM
[22] = second compound 1 µM, first compound 1 µM
[23] = second compound 1 µM, first compound 3.16 µM
[24] = second compound 1 µM, first compound 10 µM
[25] = second compound 3.16 µM, first compound 0.0316 µM
[26] = second compound 3.16 µM, first compound 0.1 µM
[27] = second compound 3.16 µM, first compound 0.316 µM
[28] = second compound 3.16 µM, first compound 1 µM
[29] = second compound 3.16 µM, first compound 3.16 µM
[30] = second compound 3.16 µM, first compound 10 µM
[31] = second compound 10 µM, first compound 0.0316 µM
[32] = second compound 10 µM, first compound 0.1 µM
[33] = second compound 10 µM, first compound 0.316 µM
[34] = second compound 10 µM, first compound 1 µM
[35] = second compound 10 µM, first compound 3.16 µM
[36] = second compound 10 µM, first compound 10 µM
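Further: spheroids exposed to agents for 7 days.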
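Wherever viability, T/C is given: 100% = DMSO vehicle wells.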

Q: Which IC50 (second compound 0.0316 µM) does the source give for `CC(=O)O[C@H]1C(=O)[C@@]2(C)[C@H]([C@H](OC(=O)c3ccccc3)[C@]3(O)C[C@H](OC(=O)[C@H](O)[C@@H](NC(=O)c4ccccc4)c4ccccc4)C(C)=C1C3(C)C)[C@]1(OC(C)=O)CO[C@@H]1C[C@@H]2O` + CN1CCN(c2cc(C(=O)Nc3cc4cc(-c5cnn(C)c5)ccc4cn3)ccn2)CC1 here?
A: < 31.6 nM

Q: And the IC50 (second compound 0.1 µM)?
A: < 31.6 nM

Q: What about the IC50 (second compound 0.316 µM) of the same compound?
A: < 31.6 nM

Q: And the IC50 (second compound 1 µM)?
A: < 31.6 nM

Q: What about the IC50 (second compound 3.16 µM) of the same compound?
A: < 31.6 nM

Q: What about the IC50 (second compound 10 µM) of the same compound?
A: < 31.6 nM

Q: What about the viability, T/C [1] of the same compound?
A: 31.2%

Q: What about the viability, T/C [2] of the same compound?
A: 21.8%

Q: And the viability, T/C [3]?
A: 14.7%

Q: What about the viability, T/C [4] of the same compound?
A: 18%

Q: What about the viability, T/C [5] of the same compound?
A: 18.6%

Q: What about the viability, T/C [6] of the same compound?
A: 22.4%

Q: And the viability, T/C [7]?
A: 31.1%

Q: And the viability, T/C [8]?
A: 17.9%

Q: And the viability, T/C [9]?
A: 19.9%

Q: And the viability, T/C [10]?
A: 16.4%

Q: What about the viability, T/C [11] of the same compound?
A: 17.4%

Q: And the viability, T/C [12]?
A: 25.2%

Q: What about the viability, T/C [13] of the same compound?
A: 21.8%

Q: What about the viability, T/C [14] of the same compound?
A: 18%

Q: What about the viability, T/C [15] of the same compound?
A: 19.3%

Q: And the viability, T/C [16]?
A: 16.1%

Q: What about the viability, T/C [17] of the same compound?
A: 19.9%

Q: What about the viability, T/C [18] of the same compound?
A: 20.5%

Q: And the viability, T/C [19]?
A: 0.09%

Q: And the viability, T/C [20]?
A: 0.12%

Q: What about the viability, T/C [21] of the same compound?
A: 3.34%

Q: And the viability, T/C [22]?
A: 0.08%

Q: And the viability, T/C [23]?
A: 0.1%

Q: And the viability, T/C [24]?
A: 3.08%

Q: What about the viability, T/C [25] of the same compound?
A: 0.05%

Q: And the viability, T/C [26]?
A: 0.11%

Q: And the viability, T/C [27]?
A: 0.13%

Q: And the viability, T/C [28]?
A: 0.1%

Q: And the viability, T/C [29]?
A: 1.96%

Q: And the viability, T/C [30]?
A: 2.3%

Q: What about the viability, T/C [31] of the same compound?
A: 0.06%

Q: And the viability, T/C [32]?
A: 0.13%

Q: And the viability, T/C [33]?
A: 0.17%

Q: What about the viability, T/C [34] of the same compound?
A: 0.16%

Q: And the viability, T/C [35]?
A: 0.19%

Q: And the viability, T/C [36]?
A: 1.72%

Q: Which IC50 (second compound 0.0316 µM) does the source give for `Nc1ccn(C2OC(CO)C(O)C2(F)F)c(=O)n1` (centres undefined) + CNC(=O)c1ccc(Nc2nc(OC3CCCC3)c3c(-c4ccc5nc(C)oc5c4)c[nH]c3n2)c(OC)c1 here?
A: < 31.6 nM

Q: What about the IC50 (second compound 0.1 µM) of the same compound?
A: < 31.6 nM

Q: What about the IC50 (second compound 0.316 µM) of the same compound?
A: < 31.6 nM

Q: What about the IC50 (second compound 1 µM) of the same compound?
A: < 31.6 nM

Q: And the IC50 (second compound 3.16 µM)?
A: < 31.6 nM

Q: What about the IC50 (second compound 10 µM) of the same compound?
A: < 31.6 nM

Q: What about the viability, T/C [1] of the same compound?
A: 21.9%

Q: And the viability, T/C [2]?
A: 14.5%

Q: What about the viability, T/C [3] of the same compound?
A: 18.9%

Q: And the viability, T/C [4]?
A: 14.9%

Q: What about the viability, T/C [5] of the same compound?
A: 20.3%

Q: And the viability, T/C [6]?
A: 18.9%

Q: What about the viability, T/C [7] of the same compound?
A: 18.2%

Q: What about the viability, T/C [8] of the same compound?
A: 18.4%

Q: What about the viability, T/C [9] of the same compound?
A: 16.8%

Q: What about the viability, T/C [10] of the same compound?
A: 14.6%

Q: What about the viability, T/C [11] of the same compound?
A: 21%

Q: What about the viability, T/C [12] of the same compound?
A: 17.4%

Q: And the viability, T/C [13]?
A: 22.1%

Q: What about the viability, T/C [14] of the same compound?
A: 17.2%

Q: And the viability, T/C [15]?
A: 18.1%

Q: What about the viability, T/C [16] of the same compound?
A: 17.1%

Q: And the viability, T/C [17]?
A: 18.7%

Q: And the viability, T/C [18]?
A: 20.2%

Q: What about the viability, T/C [19] of the same compound?
A: 18.7%

Q: What about the viability, T/C [20] of the same compound?
A: 15.9%

Q: What about the viability, T/C [21] of the same compound?
A: 16.9%

Q: And the viability, T/C [22]?
A: 17.8%

Q: And the viability, T/C [23]?
A: 16.6%

Q: And the viability, T/C [24]?
A: 15.6%

Q: And the viability, T/C [25]?
A: 19.1%

Q: And the viability, T/C [26]?
A: 15.8%

Q: What about the viability, T/C [27] of the same compound?
A: 18.6%

Q: And the viability, T/C [28]?
A: 18.1%

Q: What about the viability, T/C [29] of the same compound?
A: 21.9%

Q: And the viability, T/C [30]?
A: 18.3%

Q: What about the viability, T/C [31] of the same compound?
A: 21.8%

Q: What about the viability, T/C [32] of the same compound?
A: 15%

Q: What about the viability, T/C [33] of the same compound?
A: 18.6%

Q: And the viability, T/C [34]?
A: 18.2%

Q: And the viability, T/C [35]?
A: 23.1%

Q: What about the viability, T/C [36] of the same compound?
A: 17.9%
